Target: T1, FAAH (Rattus norvegicus, UniProt P97612)
T1 construct: Preparation of Rat Brain Membranes Preparations (FAAH Enzyme Solution); from tissue; host or cells: rat cerebrum (brain membrane preparation)
T1 sequence (P97612 1-579): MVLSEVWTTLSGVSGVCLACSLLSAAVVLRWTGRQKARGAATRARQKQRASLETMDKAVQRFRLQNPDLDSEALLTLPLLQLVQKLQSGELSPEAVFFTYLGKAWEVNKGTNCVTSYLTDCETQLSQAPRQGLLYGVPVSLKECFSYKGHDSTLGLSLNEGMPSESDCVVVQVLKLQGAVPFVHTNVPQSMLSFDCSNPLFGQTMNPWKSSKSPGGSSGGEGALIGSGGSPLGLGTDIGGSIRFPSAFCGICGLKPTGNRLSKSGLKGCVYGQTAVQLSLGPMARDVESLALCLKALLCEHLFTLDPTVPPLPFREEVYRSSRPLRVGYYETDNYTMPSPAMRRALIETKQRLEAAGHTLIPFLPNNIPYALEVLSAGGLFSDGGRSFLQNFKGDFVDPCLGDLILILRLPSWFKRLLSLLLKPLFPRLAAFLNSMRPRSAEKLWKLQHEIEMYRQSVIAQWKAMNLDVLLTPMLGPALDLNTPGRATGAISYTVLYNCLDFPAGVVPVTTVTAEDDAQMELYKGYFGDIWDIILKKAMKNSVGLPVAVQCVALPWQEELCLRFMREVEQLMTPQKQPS
Assay: Determination of FAAH inhibitory activity in rat (rat brain membrane preparations, [3H]-anandamide hydrolysis)
Assay type: biochemical
Conditions: rat brain membrane preparations; for inhibition at 0.1 µM: at 100 nM, read-out: FAAH Inhibition Inhibition Rate at 100 nM; for IC50: read-out: FAAH Inhibition IC50
How it was run: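 Compounds tested from 0.1 nM to 1 μM to derive IC50 against FAAH hydrolysis in rat brain membrane preparations (100 μg/mL). A 10-min 37 °C preincubation was followed by 10 min with [3H]-anandamide (2 nM) mixed with 2 μM unlabelled anandamide. Radioactive ethanolamine was extracted into the water/methanol layer and counted.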

Compound | inhibition at 0.1 µM [%] | IC50 [nM]
Cn1c(=O)n(C(=O)N2CC(c3ccccc3)C2)c2cnc(C3CC3)nc21 [compound 623] | 87 | 3
CCCc1ncc2c(n1)n(C)c(=O)n2C(=O)N1CC(c2ccc(F)cc2)C1 [compound 624] | 97 | 18
CCCc1ncc2c(n1)n(C)c(=O)n2C(=O)N1CC(c2cccc(F)c2)C1 [compound 625] | 104 | 7
CCCc1ncc2c(n1)n(C)c(=O)n2C(=O)N1CC(c2ccccc2)C1 [compound 626] | 128 | 4
CCc1ncc2c(n1)n(C)c(=O)n2C(=O)N1CC(c2ccccc2)C1 [compound 627] | 107 | 4
CN(C)C(=O)n1c(=O)n(C)c2cnc(CCOc3cccc(F)c3)nc21 [compound 639] | 76 | 27
CN(C)C(=O)n1c(=O)n(C)c2cnc(CCOc3ccc(Cl)cc3)nc21 [compound 640] | 95 | 12
CN(C)C(=O)n1c(=O)n(C)c2cnc(Cc3ccc(Cl)cc3)nc21 [compound 653] | 108 | 11
COCc1ncc2c(n1)n(C1CC1)c(=O)n2C(=O)N1CC(c2cccc(F)c2)C1 [compound 665] | 99 | 7

Other lines, results leading:

inhibition at 0.1 µM [%] | IC50 [nM] | Compound
90 | 10 | CCc1ncc2c(n1)n(C)c(=O)n2C(=O)N1CC(c2ccc(F)cc2)C1 [compound 628]
89 | 9 | CN(C)C(=O)n1c(=O)n(C)c2cnc(CCOc3cccc(C(F)(F)F)c3)nc21 [compound 642]
60 | 31 | CN(C)C(=O)n1c(=O)n(C)c2cnc(Cc3ccccc3Cl)nc21 [compound 652]
88 | 24 | COCc1ncc2c(n1)n(C1CC1)c(=O)n2C(=O)N1CC(c2ccccc2)C1 [compound 663]
102 | 10 | COCc1ncc2c(n1)n(C1CC1)c(=O)n2C(=O)N1CC(c2ccc(F)cc2)C1 [compound 664]

Source: patent publication US8735406B2, “8-oxodihydropurine derivative” (Dainippon Sumitomo Pharma Co., Ltd., priority 2009, dated 2014)
